Laboratory results as given in patent US20250163038A1, “CBL-B MODULATORS AND USES THEREOF” (Nimbus Clio, Inc., priority 2021, published 2025).
Where two headings read alike, the source gives them in different places.

What was measured:
[1] = test system: Jurkat (clone E6-1) cells with NFAT luciferase reporter; experiment: Jurkat reporter assay (NFAT Luciferase); format: cell-based; conditions: Homo sapiens; Jurkat NFAT luciferase reporter cells, anti-CD3 stimulation, 6 hr; read-out: Jurkat NFAT EC50
[2] = target: T1, Recombinant human c-Cbl (aa 47-435) (Homo sapiens, UniProt P22681); experiment: c-Cbl Biochemical Assay (TR-FRET)
T1 sequence (P22681 47-435): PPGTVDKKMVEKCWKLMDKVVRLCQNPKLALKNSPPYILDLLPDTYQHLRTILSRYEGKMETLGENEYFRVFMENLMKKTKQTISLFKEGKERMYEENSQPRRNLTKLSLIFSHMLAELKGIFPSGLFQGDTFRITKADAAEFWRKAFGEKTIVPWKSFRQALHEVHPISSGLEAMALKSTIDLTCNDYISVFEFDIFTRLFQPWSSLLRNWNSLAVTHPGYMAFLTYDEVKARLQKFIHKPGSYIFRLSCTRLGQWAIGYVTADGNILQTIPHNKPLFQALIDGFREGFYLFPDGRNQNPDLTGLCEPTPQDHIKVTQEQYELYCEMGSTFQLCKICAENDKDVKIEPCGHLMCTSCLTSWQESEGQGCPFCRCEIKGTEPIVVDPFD

[3] = target: Recombinant human Cbl-b (aa 36-427) (Homo sapiens, UniProt Q13191); experiment: Cbl-b Biochemical Assay (TR-FRET)
Sequence of Recombinant human Cbl-b (aa 36-427) (Q13191 36-427): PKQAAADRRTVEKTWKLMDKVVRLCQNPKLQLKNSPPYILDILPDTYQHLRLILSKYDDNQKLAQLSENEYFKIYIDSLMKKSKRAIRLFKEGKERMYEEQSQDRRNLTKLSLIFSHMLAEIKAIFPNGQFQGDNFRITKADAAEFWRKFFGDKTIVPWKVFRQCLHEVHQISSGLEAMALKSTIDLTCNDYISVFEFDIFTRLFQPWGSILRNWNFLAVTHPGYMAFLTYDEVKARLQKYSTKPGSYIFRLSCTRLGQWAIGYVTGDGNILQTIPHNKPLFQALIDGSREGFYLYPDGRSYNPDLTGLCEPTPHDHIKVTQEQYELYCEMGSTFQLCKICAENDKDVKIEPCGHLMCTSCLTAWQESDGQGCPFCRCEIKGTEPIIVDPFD

[4] = hc-Cbl Biochemical Assay (TR-FRET), read-out: TR-FRET hcCbl IC50

CN(Cc1cc(C(F)(F)F)c2oc(-c3cccc(-c4ccc(F)cc4-c4nncn4C)c3)nc2c1)CC1(O)CCC1 [IA-1, 1-((((2-(4′-Fluoro-2′-(4-methyl-4H-1,2,4-triazol-3-yl)-[1,1′-biphenyl]-3-yl)-7-(trifluoromethyl)benzo[d]oxazol-5-yl)methyl)(methyl)amino)methyl)cyclobutan-1-ol]
EC50 [1]: < 200 nM | IC50 [2, 4]: < 200 nM | IC50 ([3]; read-out: TR-FRET hCbl-b IC50): < 200 nM

Cn1cnnc1-c1cc(F)ccc1-c1cccc(-c2nc3cc(CN[C@H]4CCC[C@@H]4O)cc(C(F)(F)F)c3o2)c1 [HJ-1, (1S,2S)-2-(((2-(4′-Fluoro-2′-(4-methyl-4H-1,2,4-triazol-3-yl)-[1,1′-biphenyl]-3-yl)-7-(trifluoromethyl)benzo[d]oxazol-5-yl)methyl)amino)cyclopentan-1-ol]
EC50 [1]: < 200 nM | IC50 [2, 4]: < 200 nM | IC50 ([3]; read-out: TR-FRET hCbl-b IC50): < 200 nM

Cn1cnnc1-c1cc(F)ccc1-c1cccc(-c2nc3cc(CN)cc(C(F)(F)F)c3o2)c1 [EB-1, (2-(4′-Fluoro-2′-(4-methyl-4H-1,2,4-triazol-3-yl)-[1,1′-biphenyl]-3-yl)-7-(trifluoromethyl)benzo[d]oxazol-5-yl)methanamine]
EC50 [1]: 1000 to 10000 nM | IC50 [2, 4]: 200 to 1000 nM | IC50 ([3]; read-out: TR-FRET hCbl-b IC50): < 200 nM

Cn1cnnc1-c1cc(F)ccc1-c1cccc(-c2nc3cc(CNC4CCCC4)cc(C(F)(F)F)c3o2)c1 [DS-2, N-((2-(4′-Fluoro-2′-(4-methyl-4H-1,2,4-triazol-3-yl)-[1,1′-biphenyl]-3-yl)-7-(trifluoromethyl)benzo[d]oxazol-5-yl)methyl)cyclopentanamine]
EC50 [1]: < 200 nM | IC50 [2, 4]: < 200 nM | IC50 ([3]; read-out: TR-FRET hCbl-b IC50): < 200 nM

Cn1cnnc1-c1cc(C#N)ccc1-c1cc(-c2nc3cc(CN4C[C@@H]5C[C@H]4CO5)cc(F)c3o2)nc(C2CC2)c1 [AGH-4, 4-(2-Cyclopropyl-6-{7-fluoro-5-[(1S,4S)-2-oxa-5-azabicyclo[2.2.1]heptan-5-ylmethyl]-1,3-benzoxazol-2-yl}pyridin-4-yl)-3-(4-methyl-1,2,4-triazol-3-yl)benzonitrile]
EC50 [1]: 1000 to 10000 nM | IC50 [2, 4]: 200 to 1000 nM | IC50 ([3]; read-out: TR-FRET hCbl-b IC50): 200 to 1000 nM

CO[C@H](C)[C@@H](C)NCc1cc(C)c2oc(-c3cc(-c4ccc(F)cc4-c4nncn4C)cc(C4CC4)n3)nc2c1 [AFZ-2, [(2-{6-Cyclopropyl-4-[4-fluoro-2-(4-methyl-1,2,4-triazol-3-yl)phenyl]pyridin-2-yl}-7-methyl-1,3-benzoxazol-5-yl)methyl][(2R,3R)-3-methoxybutan-2-yl]amine]
EC50 [1]: 200 to 1000 nM | IC50 [2, 4]: 200 to 1000 nM | IC50 ([3]; read-out: TR-FRET hCbl-b IC50): 200 to 1000 nM

Cn1cnnc1-c1cc(F)ccc1-c1cccc(-c2nc3cc(CNCC4(O)CCC4)cc(C(F)(F)F)c3[nH]2)c1 [BP-1, 1-((((2-(4′-Fluoro-2′-(4-methyl-4H-1,2,4-triazol-3-yl)-[1,1′-biphenyl]-3-yl)-7-(trifluoromethyl)-1H-benzo[d]imidazol-5-yl)methyl)amino)methyl)cyclobutan-1-ol]
EC50 [1]: 200 to 1000 nM | IC50 [2, 4]: 1000 to 10000 nM | IC50 ([3]; read-out: TR-FRET hCbl-b IC50): < 200 nM

Cn1cnnc1-c1cc(F)ccc1-c1cccc(-c2nc3cc(C(=O)NO)cc(C(F)(F)F)c3o2)c1 [DI-1, 2-(4′-Fluoro-2′-(4-methyl-4H-1,2,4-triazol-3-yl)-[1,1′-biphenyl]-3-yl)-N-hydroxy-7-(trifluoromethyl)benzo[d]oxazole-5-carboxamide]
EC50 [1]: 10000 to 50000 nM | IC50 [2, 4]: 1000 to 10000 nM | IC50 ([3]; read-out: TR-FRET hCbl-b IC50): < 200 nM

Cn1cnnc1-c1cc(F)ccc1-c1cc(-c2nc3cc(CO)cc(F)c3o2)nc(C2CC2)c1 [AFA-2, (2-{6-Cyclopropyl-4-[4-fluoro-2-(4-methyl-1,2,4-triazol-3-yl)phenyl]pyridin-2-yl}-7-fluoro-1,3-benzoxazol-5-yl)methanol]
EC50 [1]: 1000 to 10000 nM | IC50 [2, 4]: 200 to 1000 nM | IC50 ([3]; read-out: TR-FRET hCbl-b IC50): 200 to 1000 nM

Cn1cnnc1-c1cc(F)ccc1-c1cc(-c2nc3cc(C4(N)CC4)cc(F)c3o2)nc(C2CC2)c1 [AGN-3, 1-(2-{6-Cyclopropyl-4-[4-fluoro-2-(4-methyl-1,2,4-triazol-3-yl)phenyl]pyridin-2-yl}-7-fluoro-1,3-benzoxazol-5-yl) cyclopropan-1-amine]
EC50 [1]: 1000 to 10000 nM | IC50 [2, 4]: 200 to 1000 nM | IC50 ([3]; read-out: TR-FRET hCbl-b IC50): < 200 nM

Cn1cnnc1-c1cc(F)ccc1-c1cccc(-c2nc3cc(CN[C@@H]4CCC[C@H]4O)cc(C(F)(F)F)c3o2)c1 [Example W-2, (1R,2R)-2-(((2-(4′-Fluoro-2′-(4-methyl-4H-1,2,4-triazol-3-yl)-[1,1′-biphenyl]-3-yl)-7-(trifluoromethyl)benzo[d]oxazol-5-yl)methyl)amino)cyclopentan-1-ol]
EC50 [1]: 200 to 1000 nM | IC50 [2, 4]: 1000 to 10000 nM | IC50 ([3]; read-out: TR-FRET hCbl-b IC50): < 200 nM

COc1cc(CNCCC2CCC2)cc2nc(-c3cccc(-c4ccc(F)cc4-c4nncn4C)c3)oc12 [GG-2, 2-Cyclobutyl-N-((2-(4′-fluoro-2′-(4-methyl-4H-1,2,4-triazol-3-yl)-[1,1′-biphenyl]-3-yl)-7-methoxybenzo[d]oxazol-5-yl)methyl)ethan-1-amine]
EC50 [1]: 200 to 1000 nM | IC50 [2, 4]: < 200 nM | IC50 ([3]; read-out: TR-FRET hCbl-b IC50): < 200 nM

Cn1cnnc1-c1cc(F)ccc1-c1cccc(-c2nc3cc(CO)cc(C(C)(F)F)c3o2)c1 [FF-6, (7-(1,1-Difluoroethyl)-2-(4′-fluoro-2′-(4-methyl-4H-1,2,4-triazol-3-yl)-[1,1′-biphenyl]-3-yl)benzo[d]oxazol-5-yl)methanol]
EC50 [1]: 1000 to 10000 nM | IC50 [2, 4]: 200 to 1000 nM | IC50 ([3]; read-out: TR-FRET hCbl-b IC50): < 200 nM

C[C@@H](N[C@@H]1CCC[C@@H]1O)c1cc(C(F)(F)F)c2oc(-c3cccc(-c4ccc(F)cc4-c4nncn4C)c3)nc2c1 [EA-2, (1S,2R)-2-(((R)-1-(2-(4′-Fluoro-2′-(4-methyl-4H-1,2,4-triazol-3-yl)-[1,1′-biphenyl]-3-yl)-7-(trifluoromethyl)benzo[d]oxazol-5-yl)ethyl)amino)cyclopentan-1-ol]
EC50 [1]: < 200 nM | IC50 [2, 4]: < 200 nM | IC50 ([3]; read-out: TR-FRET hCbl-b IC50): < 200 nM

COCCN(C)Cc1cc(OC)c2oc(-c3cccc(-c4ccc(F)cc4-c4nncn4C)c3)nc2c1 [GM-2, N-((2-(4′-Fluoro-2′-(4-methyl-4H-1,2,4-triazol-3-yl)-[1,1′-biphenyl]-3-yl)-7-methoxybenzo[d]oxazol-5-yl)methyl)-2-methoxy-N-methylethan-1-amine]
EC50 [1]: 10000 to 50000 nM | IC50 [2, 4]: 1000 to 10000 nM | IC50 ([3]; read-out: TR-FRET hCbl-b IC50): 200 to 1000 nM

Cc1cc(CN(C)[C@@H]2CCC[C@@H]2O)cc2nc(-c3cc(-c4ccc(F)cc4-c4nncn4C)cc(C4CC4)n3)oc12 [AFG-1, (1S,2R)-2-(((2-(6-Cyclopropyl-4-(4-fluoro-2-(4-methyl-4H-1,2,4-triazol-3-yl)phenyl)pyridin-2-yl)-7-methylbenzo[d]oxazol-5-yl)methyl)(methyl)amino)cyclopentan-1-ol]
EC50 [1]: < 200 nM | IC50 [2]: < 200 nM | IC50 [3]: < 200 nM

C[C@@H](c1cc(C(F)(F)F)c2oc(-c3cccc(C4(Cc5nncn5C)COC4)c3)nc2c1)N1CCC2(CC2)C1 [AAE-1, 5-[(1S)-1-{5-azaspiro[2.4]heptan-5-yl}ethyl]-2-(3-{3-[(4-methyl-1,2,4-triazol-3-yl)methyl]oxetan-3-yl}phenyl)-7-(trifluoromethyl)-1,3-benzoxazole]
EC50 [1]: 200 to 1000 nM | IC50 [2, 4]: < 200 nM | IC50 ([3]; read-out: TR-FRET hCbl-b IC50): < 200 nM

Cn1cnnc1-c1cc(F)ccc1-c1cc(-c2nc3cc(CN[C@@H]4CCC[C@@H]4O)ccc3[nH]2)nc(C2CC2)c1 [AEF-2, (1S,2R)-2-(((2-(6-Cyclopropyl-4-(4-fluoro-2-(4-methyl-4H-1,2,4-triazol-3-yl)phenyl)pyridin-2-yl)-1H-benzo[d]imidazol-5-yl)methyl)amino)cyclopentan-1-ol]
EC50 [1]: 200 to 1000 nM | IC50 [2, 4]: < 200 nM | IC50 ([3]; read-out: TR-FRET hCbl-b IC50): < 200 nM

Cn1cnnc1-c1cc(F)ccc1-c1cccc(-c2nc3cc(CNCC4(C)CCC4)cc(C(F)(F)F)c3o2)c1 [HK-2, 1-(2-(4′-Fluoro-2′-(4-methyl-4H-1,2,4-triazol-3-yl)-[1,1′-biphenyl]-3-yl)-7-(trifluoromethyl)benzo[d]oxazol-5-yl)-N-((1-methylcyclobutyl)methyl)methanamine]
EC50 [1]: < 200 nM | IC50 [2, 4]: < 200 nM | IC50 ([3]; read-out: TR-FRET hCbl-b IC50): < 200 nM

Cn1cnnc1-c1cc(F)ccc1-c1cc(-c2nc3cc(CO)cc(C(F)(F)F)c3[nH]2)nc(C2CC2)c1 [ADU-2, (2-{6-Cyclopropyl-4-[4-fluoro-2-(4-methyl-1,2,4-triazol-3-yl)phenyl]pyridin-2-yl}-7-(trifluoromethyl)-1H-1,3-benzodiazol-5-yl)methanol]
EC50 [1]: 200 to 1000 nM | IC50 [2, 4]: < 200 nM | IC50 ([3]; read-out: TR-FRET hCbl-b IC50): < 200 nM

Cn1cnnc1-c1cc(F)ccc1-c1cccc(-c2nc3cc(CN4CC(C)(O)C4)cc(C(F)(F)F)c3[nH]2)c1 [BR-1, 1-((2-(4′-Fluoro-2′-(4-methyl-4H-1,2,4-triazol-3-yl)-[1,1′-biphenyl]-3-yl)-7-(trifluoromethyl)-1H-benzo[d]imidazol-5-yl)methyl)-3-methylazetidin-3-ol]
EC50 [1]: 1000 to 10000 nM | IC50 [2, 4]: 1000 to 10000 nM | IC50 ([3]; read-out: TR-FRET hCbl-b IC50): < 200 nM

Cn1cnnc1-c1cc(F)ccc1-c1cccc(-c2nc3cc(CNCC4(O)CC(F)(F)C4)cc(C(F)(F)F)c3o2)c1 [CQ-1, 3,3-Difluoro-1-((((2-(4′-fluoro-2′-(4-methyl-4H-1,2,4-triazol-3-yl)-[1,1′-biphenyl]-3-yl)-7-(trifluoromethyl)benzo[d]oxazol-5-yl)methyl)amino)methyl)cyclobutan-1-ol]
EC50 [1]: < 200 nM | IC50 [2, 4]: < 200 nM | IC50 ([3]; read-out: TR-FRET hCbl-b IC50): < 200 nM
